{"source": "patent US7125844B2", "about": "“Dab9 derivatives of lipopeptide antibiotics and methods of making and using the same” (priority 2002, dated 2006)", "system": "methicillin sensitive Staphylococcus aureus (MSSA; Smith strain)", "assay": "Mouse protection model: mice infected intraperitoneally with MSSA, dosed subcutaneously", "assay_type": "in vivo", "details": "for Number Dead: 10 mice", "description": "An overnight culture of methicillin sensitive Staphylococcus aureus (“MSSA”; Smith strain) grown to stationary phase in brain heart infusion broth (BHI) was diluted 1000-fold and maintained at 37° C. in a shaking incubator. Approximately two hours later the culture was centrifuged and the pellet was washed with sterile phosphate-buffered saline (“PBS”). The washed pellet was then reconstituted in Mueller-Hinton Broth (“MHB”) to achieve the desired density of bacteria. A portion of the inoculum was plated on blood agar plates to determine colony-forming units (CFU) per milliliter.\nCompound IB-1272 was formulated immediately before dosing in aqueous vehicle containing 5% dextrose. Compound IB-756 (Aspartocin) was formulated in PBS or 5% dextrose and used as a positive control.\nImmunocompetent Swiss Webster Mice from Simonsen Laboratories, Gilroy, Calif., received via intraperitoneal injection a single inoculum (0.5 ml) containing an estimated 4.0×10^7 CFU of MSSA Smith strain. The day of inoculation was designated study day 0. Immediately after infection, mice were treated subcutaneously with a single dose of vehicle alone, IB-1272 (2, 4, or 8 mg/kg), IB-756 (2.5 or 5 mg/kg in PBS), or IB-756 (2.5 or 5 mg/kg in 5% dextrose).", "key": {"[1]": {"details": "2.0 mg/kg s.c. single dose (5% dextrose vehicle)"}, "[2]": {"details": "4 mg/kg s.c. single dose (5% dextrose vehicle)"}, "[3]": {"details": "8 mg/kg s.c. single dose (5% dextrose vehicle)"}, "[4]": {"details": "Table 1, no unit or model given"}}, "data": [{"compound": "CC(C)CCCCCCCC/C=C\\CC(=O)N[C@@H](CC(=O)O)C(=O)N[C@@H]1C(=O)N2CCCC[C@@H]2C(=O)N[C@@H]([C@H](C)C(=O)O)C(=O)N[C@@H](CC(=O)O)C(=O)NCC(=O)N[C@@H](CC(=O)O)C(=O)NCC(=O)N[C@H]([C@@H](C)NC(=O)CN)C(=O)N[C@@H](C(C)C)C(=O)N2CCC[C@H]2C(=O)N[C@@H]1C", "note": "[IB-1272, NatC15-aspartocin(Dab^9-N-glycyl)]", "values": [{"measurement": "Percent Mortality", "setting": "[1]", "value": 50, "unit": "%"}, {"measurement": "Percent Survival", "setting": "[1]", "value": 50, "unit": "%"}, {"measurement": "Number Dead", "setting": "[1]", "value": 5}, {"measurement": "Percent Mortality", "setting": "[2]", "value": 0, "unit": "%"}, {"measurement": "Percent Survival", "setting": "[2]", "value": 100, "unit": "%"}, {"measurement": "Number Dead", "setting": "[2]", "value": 0}, {"measurement": "Percent Mortality", "setting": "[3]", "value": 0, "unit": "%"}, {"measurement": "Percent Survival", "setting": "[3]", "value": 100, "unit": "%"}, {"measurement": "Number Dead", "setting": "[3]", "value": 0}, {"measurement": "ED50", "setting": "[4]", "value": 1.8, "unit": "mg/kg"}, {"measurement": "ED50", "setting": "subcutaneously administered, immunocompetent mice challenged intraperitoneally with MSSA Smith strain", "value": "< 2.0", "unit": "mg/kg"}]}, {"compound": "CC(C)CCCCCCCC/C=C\\CC(=O)N[C@@H](CC(=O)O)C(=O)N[C@@H]1C(=O)N2CCCC[C@@H]2C(=O)N[C@@H]([C@H](C)C(=O)O)C(=O)N[C@@H](CC(=O)O)C(=O)NCC(=O)N[C@@H](CC(=O)O)C(=O)NCC(=O)N[C@H]([C@@H](C)NC(=O)[C@H](C)N)C(=O)N[C@@H](C(C)C)C(=O)N2CCC[C@H]2C(=O)N[C@@H]1C", "note": "[IB-1275, NatC15-aspartocin(Dab^9-N-L-alanyl)]", "values": [{"measurement": "ED50", "setting": "[4]", "value": 15.7, "unit": "mg/kg"}]}, {"compound": "CC(C)CCCCCCCC/C=C\\CC(=O)N[C@@H](CC(=O)O)C(=O)N[C@@H]1C(=O)N2CCCC[C@@H]2C(=O)N[C@@H]([C@H](C)C(=O)O)C(=O)N[C@@H](CC(=O)O)C(=O)NCC(=O)N[C@@H](CC(=O)O)C(=O)NCC(=O)N[C@H]([C@@H](C)NC(=O)[C@@H](C)N)C(=O)N[C@@H](C(C)C)C(=O)N2CCC[C@H]2C(=O)N[C@@H]1C", "note": "[IB-1279, NatC15-aspartocin(Dab^9-N-D-alanyl)]", "values": [{"measurement": "ED50", "setting": "[4]", "value": 6, "unit": "mg/kg"}]}, {"compound": "CC(C)CCCCCCCC/C=C\\CC(=O)N[C@@H](CC(=O)O)C(=O)N[C@@H]1C(=O)N2CCCC[C@@H]2C(=O)N[C@@H]([C@H](C)C(=O)O)C(=O)N[C@@H](CC(=O)O)C(=O)NCC(=O)N[C@@H](CC(=O)O)C(=O)NCC(=O)N[C@H]([C@@H](C)NC(=O)[C@@H](N)CO)C(=O)N[C@@H](C(C)C)C(=O)N2CCC[C@H]2C(=O)N[C@@H]1C", "note": "[IB-1281, NatC15-aspartocin(Dab^9-N-L-seryl)]", "values": [{"measurement": "ED50", "setting": "[4]", "value": 14.7, "unit": "mg/kg"}]}]}
